Drawing on patent publication US9421209B2, “Kinase modulators” (Rhizen Pharmaceuticals SA, priority 2009, dated 2016), this text covers inhibition, melting point and IC50 for 19 compounds.

Like-named read-outs stand apart in the source and are kept apart here.

In one data set the target is P110β (Homo sapiens, UniProt P42338). Description: Fluorescent (HTRF) determination of PI3K enzyme activity, β isoform. In kind it is biochemical. The text has this: (§1) Assay 1: Fluorescent determination of PI3Kinase Kinase enzyme activity
P110β, sequence (P42338 whole entry, canonical isoform): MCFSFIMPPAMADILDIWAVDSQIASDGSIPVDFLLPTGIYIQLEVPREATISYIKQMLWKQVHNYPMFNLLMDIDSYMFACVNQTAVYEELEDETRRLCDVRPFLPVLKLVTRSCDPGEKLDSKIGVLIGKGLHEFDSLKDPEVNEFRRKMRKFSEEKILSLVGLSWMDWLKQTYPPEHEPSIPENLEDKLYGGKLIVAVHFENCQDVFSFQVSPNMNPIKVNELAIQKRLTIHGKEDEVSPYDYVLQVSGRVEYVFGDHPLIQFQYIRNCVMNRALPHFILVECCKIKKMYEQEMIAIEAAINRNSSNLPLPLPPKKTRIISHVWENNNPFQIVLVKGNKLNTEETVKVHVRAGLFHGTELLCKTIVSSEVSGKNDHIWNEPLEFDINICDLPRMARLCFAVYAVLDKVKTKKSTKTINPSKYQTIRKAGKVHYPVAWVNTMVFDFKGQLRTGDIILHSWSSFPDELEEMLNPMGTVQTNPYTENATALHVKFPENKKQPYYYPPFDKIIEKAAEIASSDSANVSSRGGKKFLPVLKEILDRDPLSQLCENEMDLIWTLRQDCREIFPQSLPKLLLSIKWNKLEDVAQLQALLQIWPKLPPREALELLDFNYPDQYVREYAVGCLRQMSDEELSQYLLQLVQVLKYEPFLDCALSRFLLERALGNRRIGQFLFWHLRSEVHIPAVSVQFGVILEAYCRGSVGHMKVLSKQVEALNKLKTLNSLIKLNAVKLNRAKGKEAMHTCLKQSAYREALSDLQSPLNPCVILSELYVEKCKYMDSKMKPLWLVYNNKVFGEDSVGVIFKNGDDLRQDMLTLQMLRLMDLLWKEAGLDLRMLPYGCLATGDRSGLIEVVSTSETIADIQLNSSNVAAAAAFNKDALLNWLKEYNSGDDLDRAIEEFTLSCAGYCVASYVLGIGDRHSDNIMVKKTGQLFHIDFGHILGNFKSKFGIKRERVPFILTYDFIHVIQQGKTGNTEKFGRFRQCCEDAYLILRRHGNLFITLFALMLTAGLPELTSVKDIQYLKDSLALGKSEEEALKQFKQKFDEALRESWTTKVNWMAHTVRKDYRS
P110β, sequence (P27986 whole entry partner, canonical isoform): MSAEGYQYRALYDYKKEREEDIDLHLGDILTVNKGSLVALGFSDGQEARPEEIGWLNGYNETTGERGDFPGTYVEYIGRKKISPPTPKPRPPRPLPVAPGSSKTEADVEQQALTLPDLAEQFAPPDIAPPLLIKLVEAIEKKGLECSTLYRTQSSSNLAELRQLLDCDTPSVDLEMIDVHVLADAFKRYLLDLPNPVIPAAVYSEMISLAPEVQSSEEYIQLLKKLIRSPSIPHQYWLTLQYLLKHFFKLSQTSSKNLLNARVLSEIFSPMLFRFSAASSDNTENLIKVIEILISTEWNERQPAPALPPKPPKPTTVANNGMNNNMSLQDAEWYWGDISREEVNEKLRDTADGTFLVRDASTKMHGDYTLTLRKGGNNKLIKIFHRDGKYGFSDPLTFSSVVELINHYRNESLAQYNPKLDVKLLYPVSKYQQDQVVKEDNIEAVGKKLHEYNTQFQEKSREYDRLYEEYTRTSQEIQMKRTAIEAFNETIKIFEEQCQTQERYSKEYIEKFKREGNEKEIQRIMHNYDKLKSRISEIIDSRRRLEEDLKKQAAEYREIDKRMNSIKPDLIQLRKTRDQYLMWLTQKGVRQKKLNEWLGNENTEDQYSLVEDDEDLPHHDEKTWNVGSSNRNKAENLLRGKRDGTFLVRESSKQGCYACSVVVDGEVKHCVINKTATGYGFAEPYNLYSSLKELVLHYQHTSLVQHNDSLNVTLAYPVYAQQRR
(§2) Phosphoinositide 3 kinases (PI3K) belong to a class of lipid kinases that play a critical role in the regulation of several key cellular processes. The PI3K are capable of phosphorylating the 3-hydroxy position of phosphoinositols thereby generating second messengers involved in downstream signalling events. The homogenous time resolved fluorescence (HTRF) assay allows detection of 3,4,5-triphosphate (PIP3) formed as a result of phosphorylation of phosphotidylinositol 4,5-biphosphate (PIP2) by PI3K isoforms such as α, β, γ or δ.
(§3) PI3K isoform activity for α, β, γ or δ was determined using a PI3K human HTRF™ Assay Kit (Millipore, Billerica, Mass.) with modifications. All incubations were carried out at room temperature. Briefly, 0.5 μl of 40× inhibitor (in 100% DMSO) or 100% DMSO were added to each well of a 384-well black plate (Greiner Bio-One, Monroe, N.C.) containing 14.5 μl 1× reaction buffer/PIP2 (10 mM MgCl2, 5 mM DTT, 1.38 μM PIP2) mix with or without enzyme and incubated for 10 min. After the initial incubation, 5 μl/well of 400 μM ATP was added and incubated for an additional 30 minutes. Reaction was terminated by adding 5 μl/well stop solution (Millipore, Billerica, Mass.). Five microliters of detection mix (Millipore, Billerica, Mass.) were then added to each well and was incubated for 6-18 h in the dark. HRTF ratio was measured on a microplate reader (BMG Labtech., Germany) at an excitation wavelength of 337 nm and emission wavelengths of 665 and 620 nm with an integration time of […]. Data were analyzed using Graphpad Prism (Graphpad software; San Diego Calif.) for IC50 determination. Percent inhibition was calculated based on the values for the blank and enzyme controls. The results are provided below in Table 2 & 3.

The target of a further data set is P110α (Homo sapiens, UniProt P42336). Description: Fluorescent (HTRF) determination of PI3K enzyme activity, α isoform. In kind it is biochemical.
P110α, sequence (P42336 whole entry, canonical isoform): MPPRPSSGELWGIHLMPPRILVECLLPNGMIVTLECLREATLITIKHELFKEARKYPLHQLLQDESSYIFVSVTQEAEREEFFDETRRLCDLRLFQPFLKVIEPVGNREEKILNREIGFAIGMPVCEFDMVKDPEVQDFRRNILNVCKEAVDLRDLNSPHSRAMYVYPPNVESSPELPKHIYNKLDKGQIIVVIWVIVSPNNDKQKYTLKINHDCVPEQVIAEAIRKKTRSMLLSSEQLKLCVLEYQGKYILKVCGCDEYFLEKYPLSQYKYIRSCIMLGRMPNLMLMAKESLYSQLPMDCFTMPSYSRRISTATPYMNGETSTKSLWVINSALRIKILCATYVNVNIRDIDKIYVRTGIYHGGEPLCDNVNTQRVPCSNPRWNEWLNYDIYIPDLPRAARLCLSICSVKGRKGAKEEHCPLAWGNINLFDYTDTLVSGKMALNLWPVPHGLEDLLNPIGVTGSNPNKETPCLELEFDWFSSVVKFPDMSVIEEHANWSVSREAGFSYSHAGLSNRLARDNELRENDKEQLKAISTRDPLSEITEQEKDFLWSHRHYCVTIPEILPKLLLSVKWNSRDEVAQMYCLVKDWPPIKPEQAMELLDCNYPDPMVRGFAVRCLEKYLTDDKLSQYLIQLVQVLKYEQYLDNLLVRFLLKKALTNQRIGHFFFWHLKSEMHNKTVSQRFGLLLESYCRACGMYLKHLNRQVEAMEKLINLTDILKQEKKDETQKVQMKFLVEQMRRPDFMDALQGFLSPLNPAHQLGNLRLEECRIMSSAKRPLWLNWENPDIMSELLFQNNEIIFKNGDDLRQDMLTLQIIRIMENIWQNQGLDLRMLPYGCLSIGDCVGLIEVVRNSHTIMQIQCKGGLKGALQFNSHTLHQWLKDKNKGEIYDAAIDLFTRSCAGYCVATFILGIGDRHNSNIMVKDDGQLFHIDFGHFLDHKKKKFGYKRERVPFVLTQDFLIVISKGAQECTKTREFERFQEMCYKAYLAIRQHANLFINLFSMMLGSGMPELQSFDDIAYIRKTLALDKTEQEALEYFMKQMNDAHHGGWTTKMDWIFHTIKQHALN
P110α, sequence (P27986 whole entry partner, canonical isoform): as the sequence (P27986 whole entry partner, canonical isoform) above
Excerpt: as §1, §2, §3
(In general: TR-FRET usually uses a lanthanide donor and a delayed reading to cut background.)

The next data set addresses P110 δ/Pi3K δ (Homo sapiens, UniProt O00329). Description: Fluorescent (HTRF) determination of PI3K enzyme activity, δ isoform. Details: inhibition: dose or concentration left out as unconfirmed. In kind it is biochemical. A digest of the protocol:
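IC50 fitted from percent inhibition relative to blank and enzyme-only wells. Human PI3Kδ converts PIP2 to PIP3 after addition of 400 μM ATP solution, 30 min at room temperature. Product read by time-resolved FRET after stop and 6–18 h dark incubation with detection reagents.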

[1] abbreviates: read-out: P110 δ/ Pi3K δ IC 50 nM.

P110 δ/Pi3K δ, sequence (O00329 whole entry, canonical isoform): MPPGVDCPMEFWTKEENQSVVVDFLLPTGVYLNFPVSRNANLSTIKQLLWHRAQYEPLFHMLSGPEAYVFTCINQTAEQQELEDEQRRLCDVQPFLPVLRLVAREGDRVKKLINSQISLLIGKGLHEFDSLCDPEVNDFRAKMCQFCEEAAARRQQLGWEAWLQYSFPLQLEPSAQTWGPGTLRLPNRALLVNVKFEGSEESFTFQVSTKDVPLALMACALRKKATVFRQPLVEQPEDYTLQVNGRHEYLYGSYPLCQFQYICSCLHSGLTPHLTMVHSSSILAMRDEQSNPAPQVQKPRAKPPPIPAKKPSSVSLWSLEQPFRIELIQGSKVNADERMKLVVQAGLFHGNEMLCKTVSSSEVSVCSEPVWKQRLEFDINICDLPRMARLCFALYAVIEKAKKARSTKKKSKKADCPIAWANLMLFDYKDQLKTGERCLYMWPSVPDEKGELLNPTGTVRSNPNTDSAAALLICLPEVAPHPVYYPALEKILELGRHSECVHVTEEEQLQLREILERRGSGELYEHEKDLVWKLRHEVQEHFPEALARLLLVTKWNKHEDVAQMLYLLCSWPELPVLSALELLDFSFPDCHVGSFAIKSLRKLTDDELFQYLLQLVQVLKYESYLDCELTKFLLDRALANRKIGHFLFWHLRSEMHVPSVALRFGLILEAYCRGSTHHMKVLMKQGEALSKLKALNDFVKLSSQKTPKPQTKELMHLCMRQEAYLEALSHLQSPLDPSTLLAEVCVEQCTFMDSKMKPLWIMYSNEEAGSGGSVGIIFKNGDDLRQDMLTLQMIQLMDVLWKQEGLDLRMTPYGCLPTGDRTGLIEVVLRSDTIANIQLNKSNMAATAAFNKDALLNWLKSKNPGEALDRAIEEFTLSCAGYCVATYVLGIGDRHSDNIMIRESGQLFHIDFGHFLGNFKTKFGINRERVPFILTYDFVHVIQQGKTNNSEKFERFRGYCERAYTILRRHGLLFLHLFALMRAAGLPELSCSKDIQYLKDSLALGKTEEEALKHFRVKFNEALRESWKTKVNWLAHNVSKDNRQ
P110 δ/Pi3K δ, sequence (P27986 whole entry partner, canonical isoform): as the sequence (P27986 whole entry partner, canonical isoform) above

For orientation: inhibition means how much of the control response was suppressed. Broadly, the melting point is the temperature of the solid-liquid transition. In turn, `O=c1c(-c2ccccc2)c(Cn2cnc3c(Cl)ncnc32)oc2ccc(Br)cc12` [Example 10, 6-Bromo-2-[(6-chloro-9H-purin-9-yl)methyl]-3-phenyl-4H-chromen-4-one] yielded a melting point of 234 to 236 °C. Moreover, at P110β, the inhibition at 1 µM is under 25%. Besides, on P110α, the inhibition at 1 µM is under 25%.
Regarding `COc1ncc(-c2nn(C(C)c3oc4ccccc4c(=O)c3-c3cccc(F)c3)c3ncnc(N)c23)cn1` (centres unmarked) [Example 112, 2-(1-(4-amino-3-(2-methoxypyrimidin-5-yl)-1H-pyrazolo[3,4-d]pyrimidin-1-yl)ethyl)-3-(3-fluorophenyl)-4H-chromen-4-one], the melting point was in the range of 224 to 227 °C. In addition, the inhibition at 1 µM against P110β was under 25%. On P110α, this compound yielded an inhibition at 1 µM of under 25%. The compound further had an inhibition against P110 δ/Pi3K δ of under 50%.
`COc1ccc(-c2nn(C(C)c3oc4ccccc4c(=O)c3-c3cccc(F)c3)c3ncnc(N)c23)cc1F` (centres unmarked) [Example 84, 2-(1-(4-amino-3-(3-fluoro-4-methoxyphenyl)-1H-pyrazolo[3,4-d]pyrimidin-1-yl)ethyl)-3-(3-fluorophenyl)-4H-chromen-4-one]: the melting point lay in the range of 222 to 224 °C. The compound also came in with an inhibition at 1 µM against P110β of under 25%. Moreover, on P110α, the inhibition at 1 µM was under 25%. At P110 δ/Pi3K δ, this compound had an inhibition of 50 to 100%. Besides, the IC50 on P110 δ/Pi3K δ (setting [1]) was under 250 nM.
`Nc1ncnc2c1ncn2Cc1oc2ccc(F)cc2c(=O)c1-c1cccc(F)c1` [Example 119, 2-((6-amino-9H-purin-9-yl)methyl)-6-fluoro-3-(3-fluorophenyl)-4H-chromen-4-one] registered a melting point of 180 to 183 °C. On P110β, the inhibition at 1 µM was under 25%. The inhibition at 1 µM at P110α was under 25%. Further, the inhibition at P110 δ/Pi3K δ is under 50%.
As to `Nc1ncnc2c1ncn2Cc1oc2ccc(F)cc2c(=O)c1-c1ccccc1` [Example 118, 2-((6-amino-9H-purin-9-yl)methyl)-6-fluoro-3-phenyl-4H-chromen-4-one], the melting point lay in the range of 207 to 209 °C. Besides, the inhibition at 1 µM against P110β fell in the range of 25 to 50%. Moreover, the inhibition at 1 µM against P110α was under 25%. Further, the inhibition against P110 δ/Pi3K δ was under 50%.
As for `Cc1nc2cc(-c3nn(C(C)c4oc5ccccc5c(=O)c4-c4cccc(F)c4)c4ncnc(N)c34)ccc2[nH]1` (centres unmarked) [Example 115, 2-(1-(4-amino-3-(2-methyl-1H-benzo[d]imidazol-5-yl)-1H-pyrazolo[3,4-d]pyrimidin-1-yl)ethyl)-3-(3-fluorophenyl)-4H-chromen-4-one], the melting point lay within 154 to 156 °C. This compound gave an inhibition at 1 µM at P110β of under 25%. At P110α, this compound returned an inhibition at 1 µM of under 25%. In addition, the inhibition against P110 δ/Pi3K δ is 50 to 100%. Further, the IC50 on P110 δ/Pi3K δ (setting [1]) is under 250 nM.
As for `CC(c1oc2ccccc2c(=O)c1-c1ccccc1)n1cnc2c(N)ncnc21` (centres unmarked) [Example 23, 2-(1-(6-Amino-9H-purin-9-yl)ethyl)-3-phenyl-4H-chromen-4-one], the melting point lay within 254 to 257 °C. The same compound registered an inhibition at 1 µM on P110β of under 25%. Also, the inhibition at 1 µM against P110α is under 25%. Further, the inhibition at 1 µM on P110 δ/Pi3K δ lay within 50 to 100%. The IC50 on P110 δ/Pi3K δ (read-out: P110 δ/Pi3K δ IC 50 nM) is under 250 nM.
Consider `CC(c1oc2ccccc2c(=O)c1-c1cccc(F)c1)n1nc(-c2ccc(O)c(F)c2)c2c(N)ncnc21` (centres unmarked) [Example 85, 2-(1-(4-amino-3-(3-fluoro-4-hydroxyphenyl)-1H-pyrazolo[3,4-d]pyrimidin-1-yl)ethyl)-3-(3-fluorophenyl)-4H-chromen-4-one], for which the melting point fell in the range of 244 to 247 °C. For the same compound, the inhibition at 1 µM at P110β lay within 25 to 50%. At P110α, this compound yielded an inhibition at 1 µM of 25 to 50%. Further, on P110 δ/Pi3K δ, the inhibition is 50 to 100%.
With `CC(c1oc2ccccc2c(=O)c1-c1cccc(F)c1)n1nc(-c2ccc(N(C)C)cc2)c2c(N)ncnc21` (centres unmarked) [Example 148, 2-(1-(4-amino-3-(4-(dimethylamino)phenyl)-1H-pyrazolo[3,4-d]pyrimidin-1-yl)ethyl)-3-(3-fluorophenyl)-4H-chromen-4-one], the melting point was 214 to 217 °C. Moreover, the inhibition at 1 µM on P110β lay in the range of 50 to 100%. This compound showed an inhibition against P110 δ/Pi3K δ of 50 to 100%.
As to `CC(c1oc2ccccc2c(=O)c1-c1cccc(F)c1)n1nc(-c2ccc(N3CCOCC3)nc2)c2c(N)ncnc21` (centres unmarked) [Example 137, 2-(1-(4-amino-3-(6-morpholinopyridin-3-yl)-1H-pyrazolo[3,4-d]pyrimidin-1-yl)ethyl)-3-(3-fluorophenyl)-4H-chromen-4-one], the melting point was in the range of 269 to 271 °C. The inhibition at 1 µM against P110β is 25 to 50%. Moreover, the inhibition against P110 δ/Pi3K δ is under 50%.
`COc1c(C)cc(-c2nn(C(C)c3oc4ccccc4c(=O)c3-c3cccc(F)c3)c3ncnc(N)c23)cc1C` (centres unmarked) [Example 131, 2-(1-(4-amino-3-(4-methoxy-3,5-dimethylphenyl)-1H-pyrazolo[3,4-d]pyrimidin-1-yl)ethyl)-3-(3-fluorophenyl)-4H-chromen-4-one] returned a melting point of 234 to 236 °C. This compound gave an inhibition at 1 µM at P110β of under 25%. Also, the inhibition at 1 µM on P110α was 25 to 50%. The same compound registered an inhibition on P110 δ/Pi3K δ of under 50%.
Consider `COc1cc(F)cc(-c2nn(Cc3oc4ccc(F)cc4c(=O)c3-c3cccc(F)c3)c3ncnc(N)c23)c1` [Example 120, 2-((4-amino-3-(3-fluoro-5-methoxyphenyl)-1H-pyrazolo[3,4-d]pyrimidin-1-yl)methyl)-6-fluoro-3-(3-fluorophenyl)-4H-chromen-4-one], for which the inhibition at 1 µM at P110β and at P110α was under 25% in each case.
`C[C@@H](Nc1ncnc2[nH]cnc12)c1oc2ccc(F)cc2c(=O)c1-c1cccc(F)c1` [Example 124, (R)-2-(1-(9H-purin-6-ylamino)ethyl)-6-fluoro-3-(3-fluorophenyl)-4H-chromen-4-one]: the melting point is 194 to 197 °C. Moreover, the inhibition at 1 µM on P110β is under 25%. This compound also showed an inhibition at 1 µM at P110α of under 25%. Also, the inhibition against P110 δ/Pi3K δ is under 50%.
In the case of `CCC(c1oc2ccccc2c(=O)c1-c1cccc(F)c1)n1nc(-c2ccc3c(C)n[nH]c3c2)c2c(N)ncnc21` (centres unmarked) [Example 116, 2-(1-(4-amino-3-(3-methyl-1H-indazol-6-yl)-1H-pyrazolo[3,4-d]pyrimidin-1-yl)propyl)-3-(3-fluorophenyl)-4H-chromen-4-one], the melting point fell in the range of 268 to 270 °C. This compound also had an inhibition at 1 µM against P110β of under 25%. At P110α, this compound displayed an inhibition at 1 µM of under 25%. At P110 δ/Pi3K δ, the inhibition fell in the range of 50 to 100%.
Compound `CC(c1oc2ccccc2c(=O)c1-c1cccc(F)c1)n1nc(-c2cc3ccccc3s2)c2c(N)ncnc21` (centres unmarked) [Example 151, 2-(1-(4-amino-3-(benzo[b]thiophen-2-yl)-1H-pyrazolo[3,4-d]pyrimidin-1-yl)ethyl)-3-(3-fluorophenyl)-4H-chromen-4-one] came in with a melting point of 242 to 245 °C. This compound also displayed an inhibition at 1 µM against P110β of 25 to 50%. The inhibition on P110 δ/Pi3K δ was 50 to 100%. The IC50 on P110 δ/Pi3K δ (setting [1]) is under 250 nM.
For the compound `CCOc1cccc(-c2nn(C(C)c3oc4ccccc4c(=O)c3-c3cccc(F)c3)c3ncnc(N)c23)c1` (centres unmarked) [Example 150, 2-(1-(4-amino-3-(3-ethoxyphenyl)-1H-pyrazolo[3,4-d]pyrimidin-1-yl)ethyl)-3-(3-fluorophenyl)-4H-chromen-4-one], the melting point was 162 to 165 °C. This compound came in with an inhibition at 1 µM against P110β of 25 to 50%. For the same compound, the inhibition at P110 δ/Pi3K δ is under 50%.
Regarding `CC(C)Oc1ccc(-c2nn(C(C)c3oc4ccccc4c(=O)c3-c3cccc(F)c3)c3ncnc(N)c23)cc1` (centres unmarked) [Example 144, 2-(1-(4-amino-3-(4-isopropoxyphenyl)-1H-pyrazolo[3,4-d]pyrimidin-1-yl)ethyl)-3-(3-fluorophenyl)-4H-chromen-4-one], the melting point lay within 224 to 226 °C. On P110β, the inhibition at 1 µM was in the range of 50 to 100%. In addition, the inhibition on P110 δ/Pi3K δ was 50 to 100%. The IC50 at P110 δ/Pi3K δ (setting [1]) is under 250 nM.
For the compound `CC(c1oc2ccccc2c(=O)c1-c1cccc(F)c1)n1nc(-c2csc(C=O)c2)c2c(N)ncnc21` (centres unmarked) [Example 113, 4-(4-amino-1-(1-(3-(3-fluorophenyl)-4-oxo-4H-chromen-2-yl)ethyl)-1H-pyrazolo[3,4-d]pyrimidin-3-yl)thiophene-2-carbaldehyde], the melting point fell in the range of 192 to 195 °C. On P110β, the inhibition at 1 µM was under 25%. Moreover, the inhibition at P110 δ/Pi3K δ was in the range of 50 to 100%.
The corresponding values for `CC(=O)c1ccc(-c2nn(C(C)c3oc4ccccc4c(=O)c3-c3cccc(F)c3)c3ncnc(N)c23)cc1` (centres unmarked) [Example 146, 2-(1-(3-(4-acetylphenyl)-4-amino-1H-pyrazolo[3,4-d]pyrimidin-1-yl)ethyl)-3-(3-fluorophenyl)-4H-chromen-4-one] are 218 to 221 °C, under 25% and 50 to 100%.
